Measurements published in the NIST ThermoML archive (doi:10.1016/j.jct.2011.09.008).

Test: xn = mol fraction of the nth substance listed
Settings: 101 kPa, Liquid, Sing-around technique in a fixed-path interferometer

CCCOCC(C)O (stereo not given) [1-propoxy-2-propanol] + O
speed of sound [m/s]
Settings	283.15 K	288.15 K	293.15 K	298.15 K	303.15 K
x1 = 0.00326	1470.7	1487.1	1501.5	1514.2	1527.5
x1 = 0.00845	1503.1	1516.8	1528.7	1538.8	1548.3
x1 = 0.01369	1533.3	1543.7	1552.5	1560.1	1565.5
x1 = 0.01942	1563.4	1570.1	1575.7	1579.2	1581.5
x1 = 0.02453	1582.6	1585.6	1586.9	1586.7	1585.7
x1 = 0.02855	1594.9	1594	1591.7	1587.7	1582.4
x1 = 0.03532	1598	1590.9	1583.2	1575.1	1566.6
x1 = 0.04675	1577.1	1566.9	1557	1547.1	1536.8
x1 = 0.06359	1545.3	1535.2	1524.6	1513.5	1501.6
x1 = 0.08224	1520.5	1509.6	1498.1	1486	1472.6
x1 = 0.09758	1504.9	1493.2	1481	1467.8	1454
x1 = 0.1185	1487.8	1475.4	1462.3	1448.6	1434
x1 = 0.145	1470.9	1457.6	1444	1429.6	1414.6
x1 = 0.1945	1447.2	1433.1	1418.6	1403.7	1388.4
x1 = 0.2213	1437.3	1422.4	1407.9	1392.7	1377.5
x1 = 0.2686	1422.1	1406.9	1391.7	1376	1360.6
x1 = 0.3432	1402.5	1386.5	1370.8	1354.5	1338.5
x1 = 0.4424	1381.2	1364.5	1347.8	1330.9	1314.2
x1 = 0.5415	1363	1345.7	1328.4	1311	1293.7
x1 = 0.6444	1346.5	1328.6	1310.8	1293	1275.3
x1 = 0.7056	1337.3	1319.3	1301.3	1283.3	1265.3
x1 = 0.7569	1330.3	1312	1293.9	1275.7	1257.7
x1 = 0.7951	1325.2	1306.9	1288.7	1270.4	1252.4
x1 = 0.8374	1320.2	1301.4	1283.2	1264.8	1246.5
x1 = 0.88	1314.6	1296.2	1277.8	1259.4	1240.9
x1 = 0.9193	1310.3	1291.7	1273.4	1254.8	1236.5
x1 = 0.9597	1306	1287.3	1268.9	1250.2	1231.7
x1 = 1	1301.9	1283.2	1264.5	1245.8	1227.3
